PubChem BioAssay AID1745844 (Carcinogenic Potency Database (CPDB), 2022)
Active and inactive are the calls of the source. The rule behind the calls is not given here.

System: rodent lifetime carcinogenesis bioassay, tumor incidence TD50
Test: carcinogenic potency in animals, long-term in vivo studies, CPDB compilation (AID 1745844)

In the case of `O=C1c2ccccc2C(=O)N1SC(Cl)(Cl)Cl`, the carcinogen call (mouse, strain B6AKF1, females, oral dosing, site: any site (literature study), lesion: several types, types named in the paper, dosed 76 weeks, study length 76 weeks) is reported as “negative (inactive)”, the carcinogen call (mouse, strain B6AKF1, females, oral dosing, site: liver, lesion: hepatoma, dosed 76 weeks, study length 76 weeks) is reported as “negative (inactive)” and the carcinogen call (mouse, strain B6AKF1, females, oral dosing, site: lung, lesion: adenoma, dosed 76 weeks, study length 76 weeks) is reported as “negative (inactive)”. The carcinogen call (mouse, strain B6AKF1, males, oral dosing, site: any site (literature study), lesion: several types, types named in the paper, dosed 76 weeks, study length 76 weeks) was “negative (inactive)”, the TD50 (mouse, strain B6AKF1, males, oral dosing, site: liver, lesion: hepatoma, dosed 76 weeks, study length 76 weeks) was 8230 mg/kg/day (inactive) and the carcinogen call (mouse, strain B6AKF1, males, oral dosing, site: lung, lesion: adenoma, dosed 76 weeks, study length 76 weeks) was “negative (inactive)”. The TD50 (mouse, strain B6C3F1, females, in feed, site: all sites, lesion: malignant lymphoma, dosed 104 weeks, study length 104 weeks) was 2200 mg/kg/day, the TD50 (mouse, strain B6C3F1, females, in feed, site: duodenum, lesion: adenocarcinoma, dosed 104 weeks, study length 104 weeks) was 2090 mg/kg/day and the TD50 (mouse, strain B6C3F1, females, in feed, site: duodenum, lesion: adenoma, dosed 104 weeks, study length 104 weeks) was 29200 mg/kg/day. The TD50 (mouse, strain B6C3F1, females, in feed, site: duodenum, lesion: several types, types named in the paper, dosed 104 weeks, study length 104 weeks) was 1670 mg/kg/day, the TD50 (mouse, strain B6C3F1, females, in feed, site: liver, lesion: several types, types named in the paper, dosed 104 weeks, study length 104 weeks) was 18900 mg/kg/day and the TD50 (mouse, strain B6C3F1, females, in feed, site: stomach, nonglandular, lesion: several types, types named in the paper, dosed 104 weeks, study length 104 weeks) was 6000 mg/kg/day. The TD50 (mouse, strain B6C3F1, females, in feed, site: stomach, nonglandular, lesion: squamous-cell papilloma, dosed 104 weeks, study length 104 weeks) was 5780 mg/kg/day, the TD50 (mouse, strain B6C3F1, females, oral dosing, site: any site (literature study), lesion: several types, types named in the paper, dosed 76 weeks, study length 76 weeks) was 260 mg/kg/day (inactive) and the carcinogen call (mouse, strain B6C3F1, females, oral dosing, site: liver, lesion: hepatoma, dosed 76 weeks, study length 76 weeks) was “negative (inactive)”. For the same compound, the carcinogen call (mouse, strain B6C3F1, females, oral dosing, site: lung, lesion: several types, types named in the paper, dosed 76 weeks, study length 76 weeks) was “negative (inactive)”, the TD50 (mouse, strain B6C3F1, males, in feed, site: duodenum, lesion: adenocarcinoma, dosed 104 weeks, study length 104 weeks) was 981 mg/kg/day and the TD50 (mouse, strain B6C3F1, males, in feed, site: duodenum, lesion: adenoma, dosed 104 weeks, study length 104 weeks) was 23000 mg/kg/day. It also gave a TD50 (mouse, strain B6C3F1, males, in feed, site: duodenum, lesion: several types, types named in the paper, dosed 104 weeks, study length 104 weeks) of 899 mg/kg/day, a TD50 (mouse, strain B6C3F1, males, in feed, site: stomach, nonglandular, lesion: several types, types named in the paper, dosed 104 weeks, study length 104 weeks) of 5460 mg/kg/day and a TD50 (mouse, strain B6C3F1, males, in feed, site: stomach, nonglandular, lesion: squamous-cell carcinoma, dosed 104 weeks, study length 104 weeks) of 13100 mg/kg/day. The TD50 (mouse, strain B6C3F1, males, in feed, site: stomach, nonglandular, lesion: squamous-cell papilloma, dosed 104 weeks, study length 104 weeks) was 12900 mg/kg/day, the TD50 (mouse, strain B6C3F1, males, oral dosing, site: any site (literature study), lesion: several types, types named in the paper, dosed 76 weeks, study length 76 weeks) was 87.7 mg/kg/day (inactive) and the TD50 (mouse, strain B6C3F1, males, oral dosing, site: liver, lesion: hepatoma, dosed 76 weeks, study length 76 weeks) was 242 mg/kg/day (inactive). The TD50 (mouse, strain B6C3F1, males, oral dosing, site: lung, lesion: adenoma, dosed 76 weeks, study length 76 weeks) was 156 mg/kg/day (inactive), the TD50 (mouse, strain Charles River CD1, females, in feed, site: digestive tract, lesion: several types, types named in the paper, dosed 112 weeks, study length 112 weeks) was 2380 mg/kg/day and the TD50 (mouse, strain Charles River CD1, females, in feed, site: duodenum, lesion: adenocarcinoma, dosed 112 weeks, study length 112 weeks) was 3310 mg/kg/day. It also gave a TD50 (mouse, strain Charles River CD1, females, in feed, site: duodenum, lesion: adenoma, dosed 112 weeks, study length 112 weeks) of 7280 mg/kg/day, a TD50 (mouse, strain Charles River CD1, males, in feed, site: digestive tract, lesion: several types, types named in the paper, dosed 112 weeks, study length 112 weeks) of 2190 mg/kg/day and a TD50 (mouse, strain Charles River CD1, males, in feed, site: duodenum, lesion: adenocarcinoma, dosed 112 weeks, study length 112 weeks) of 2400 mg/kg/day. The TD50 (mouse, strain Charles River CD1, males, in feed, site: duodenum, lesion: adenoma, dosed 112 weeks, study length 112 weeks) was 10300 mg/kg/day, the TD50 (mouse, strain Charles River CD1, males, in feed, site: stomach, nonglandular, lesion: papilloma, dosed 112 weeks, study length 112 weeks) was 13400 mg/kg/day and the TD50 (rat, strain Charles River CD (Sprague-Dawley), males, in feed, site: testis, lesion: interstitial-cell tumor, dosed 104 weeks, study length 104 weeks) was 839 mg/kg/day. The TD50 (rat, strain Charles River CD (Sprague-Dawley), males, in feed, site: thyroid gland, lesion: several types, types named in the paper, dosed 104 weeks, study length 104 weeks) was 2940 mg/kg/day, the TD50 (rat, strain Fischer 344, females, in feed, site: all sites, lesion: malignant lymphoma, dosed 104 weeks, study length 104 weeks) was 947 mg/kg/day and the TD50 (rat, strain Fischer 344, males, in feed, site: all sites, lesion: malignant lymphoma, dosed 104 weeks, study length 104 weeks) was 1070 mg/kg/day.
